Measured values from patent US20230248723A1, “PYRROLO[2,3-B]PYRAZINE COMPOUNDS AS CCCDNA INHIBITORS FOR THE TREATMENT OF HEPATITIS B VIRUS (HBV) INFECTION” (Hoffmann-La Roche Inc., priority 2017, published 2023).
Read-outs that look alike come from different tables or passages of the source.

Legend:
Type in all cases: cell-based
[1] = test system: albumin (secreted, cellular toxicity marker); assay: Albumin (in vitro cellular tox marker), multiplex assay, PHH; conditions: human
Description: Fresh primary human hepatocytes (PXB-PHH) harvested from humanized mice (uPA/SCID mice)—herein called PHH—were obtained from PhoenixBio Co., Ltd (Japan). Cells were seeded on a collagen I-coated plate at the following cell density: 35,000 cells/well (384-well), 70,000 cells/well (96-well), or, 400,000 cells/well (24-well) in modified hepatocyte clonal growth medium (dHCGM). dHCGM is a DMEM medium containing 100 U/ml Penicillin, 100 μg/ml Streptomycin, 20 mM Hopes, 44 mM NaHCO3, 15 μg/ml L-proline, 0.25 μg/ml insulin, 50 nM Dexamethazone, 5 ng/ml EGF, 0.1 mM Asc-2P, 2% DMSO and 10% FBS (Ishida et al., 2015). Cells were cultured at 37° C. incubator in a humidified atmosphere with 5% CO2. Culture medium was replaced 24 h post-plating and every 2 days until harvest.
Following 4 day of maturation with 1 μM MB-1, HLC were incubated with HBV (purified from CHB individuals) at multiplicity of infection (MOI) 10-40 without PEG for 24 hr; virus inoculum was removed the following day. […] Compound treatment in HLC and PHH was started at day 3 post infection. Compound (in powder) was dissolved in DMSO; the final concentration of DMSO added to cells is 1%. Fresh compound was replenished every 2 day until cells were harvested at day 10 (PHH), or day 14 (HLC). Compound effect on HBV and cellular toxicity was measured by multiplex assay (HBsAg, HBeAg, albumin), branched DNA (pgRNA), or digital PCR (cccDNA) and depicted as % of inhibition compared to DMSO control. Graphs were prepared using Spotfire software.
A custom, Luminex-based multiplex assay that simultaneously measured HBeAg, albumin, and HBsAg was developed by Radix BioSolutions (Georgetown, Tex.). This is a sandwich immunoassay; each capture antibody was coupled with xMAP™ Luminex magnetic beads. The dynamic ranges of analyte detection are as follows: HBeAg (1-316 ng/ml), albumin (3.1-10,000 ng/ml), and HBsAg (0.1-100 ng/ml) with coefficient variant (CV) […]. Samples were read on FlexMAP 3D (Luminex) and analyzed by Genedata software.

HBV DNA = HBV DNA in culture medium of HBV-infected PHH; conditions: Hepatitis B virus
Source text: FIG. 8: Establishment of dPCR assay for cccDNA quantification. […] A 3.2-kb, linearized plasmid HBV is used as a standard curve for relative quantification of HBV DNA by TaqMan-PCR. […] (B) Testing primer & PCR specificity and removal of excess RC-DNA. In contrast to TaqMan-PCR (relative quantification method), digital PCR (dPCR) is an absolute quantification method without the need of standard curve. […] First step—Testing primer and PCR specificity. Serum-derived HBV (contains RC-DNA, devoid of cccDNA) was used as a DNA template for dPCR using 2 sets of primers (for HBV core and cccDNA region) (Werle-Lapostolle et al., 2004). Samples were amplified by dPCR on QuantStudio 12K Flex Real-Time PCR System (AB); 4 subarrays (256 through-holes) were used for each sample. […] Second step—Removal of excess RC-DNA. PHH seeded in 96-well were infected with HBV. At day 6 pi, cell lysates were digested with Plasmid safe, ATP-dependent, DNAse (PSAD), T5 exonuclease, or, T5 exonuclease followed by EcoRI, for 1 hr at 37° C. Samples were amplified by dPCR using cccDNA primers on QuantStudio 12K Flex Real-Time PCR System (AB); 4 subarrays (256 through-holes) were used for each sample. […] Fresh medium and compound was replenished every 2 day. At day 10 pi, culture media were harvested and measured for HBV DNA, HBsAg, and HBeAg. Albumin was used as a surrogate of in vitro tox marker. Cells were lysed and treated with T5 exonuclease, cccDNA was then measured by dPCR on QuantStudio 12K Flex Real-Time PCR System (AB); 4 subarrays (256 through-holes) were used for each sample. […] Cells were treated with compounds at the indicated concentrations starting from day 3 post infection (patient-derived HBV, GT D). Fresh medium and compound was replenished every 2 day. Cells were harvested at day 10 pi; viral markers and albumin were measured from culture medium.
HBV from sera of CHB individuals were purified using OptiPrep™ (Axis-Shield, Norway) density gradient. Briefly, OptiPrep™ stock solution (60%) was diluted to 50% and 10% in PBS; equal volume of each solution was then added into SW41 tubes (BD Biosciences). Linear gradient was performed by placing the tubes on Gradient Master 108™ (Biocomp) at setting: 800, 25 rpm for 30″. Two hundred microliter (200 μl) of serum was overlaid on the top of gradient and samples were centrifuged at 100,000×g for 2 hours at 4° C. […] Fractions containing the peak of HBV DNA were pooled and used as virus inoculum for all infection experiments. All fractions were stored at −80° C. until used.
Fresh primary human hepatocytes (PXB-PHH) harvested from humanized mice (uPA/SCID mice)—herein called PHH—were obtained from PhoenixBio Co., Ltd (Japan).

cccDNA = cccDNA (digital PCR), HBV-infected HepaRG; conditions: for IC50: Hepatitis B virus
HBeAg = assay: HBeAg, HBV-infected HepaRG; conditions: Hepatitis B virus

In the case of `O=C(NC(CO)CO)c1c[nH]c2ncc(C3CC3)nc12` [compound 7], the IC50 at 7 days ([1]; HepG2.2.15-derived HBV GT D, MOI 40, read-out: In vitro tox albumin IC50 (μM) Median) is reported as 21.1 µM, the IC50 at 7 days ([1]; HepG2.2.15-derived HBV GT D, MOI 125, read-out: In vitro tox albumin IC50 (μM) Median) is reported as 20.2 µM and the IC50 at 7 days ([1]; primary human hepatocytes (PXB-PHH) infected with HBV, patient-derived HBV (GT D), read-out: In vitro tox albumin IC50 (μM) Median) is reported as 20.9 µM. For the same compound, the IC50 at 7 days ([1]; primary human hepatocytes (PXB-PHH) infected with HBV, patient-derived HBV GT A, MOI 40, day 10 pi, read-out: In vitro tox albumin IC50 (μM) Median) was 20.3 µM, the IC50 at 7 days ([1]; primary human hepatocytes (PXB-PHH) infected with HBV, patient-derived HBV GT B, MOI 40, day 10 pi, read-out: In vitro tox albumin IC50 (μM) Median) was 19.2 µM and the IC50 at 7 days ([1]; primary human hepatocytes (PXB-PHH) infected with HBV, patient-derived HBV GT C, MOI 40, day 10 pi, read-out: In vitro tox albumin IC50 (μM) Median) was 23.2 µM. For the same compound, the IC50 at 7 days ([1]; primary human hepatocytes (PXB-PHH) infected with HBV, patient-derived HBV GT D, MOI 40 (Table 6), read-out: In vitro tox albumin IC50 (μM) Median) was 23.7 µM, the IC50 at 7 days ([1]; primary human hepatocytes (PXB-PHH) infected with HBV, patient-derived HBV GT D, MOI 40, day 10 pi (Table 5), read-out: In vitro tox albumin IC50 (μM) Median) was 23.7 µM and the IC50 at 7 days ([1]; primary human hepatocytes (PXB-PHH) infected with HBV, patient-derived HBV GT D, MOI 125, read-out: In vitro tox albumin IC50 (μM) Median) was 20.5 µM. The IC50 (HBV DNA; 240 h, read-out: HBV DNA IC50 (μM) Median, PHH, patient-derived HBV GT A, MOI 40, day 10 pi) was 0.025 µM, the IC50 (HBV DNA; 240 h, read-out: HBV DNA IC50 (μM) Median, PHH, patient-derived HBV GT B, MOI 40, day 10 pi) was 0.023 µM and the IC50 (HBV DNA; 240 h, read-out: HBV DNA IC50 (μM) Median, PHH, patient-derived HBV GT C, MOI 40, day 10 pi) was 0.02 µM. For the same compound, the IC50 (HBV DNA; 240 h, read-out: HBV DNA IC50 (μM) Median, PHH, patient-derived HBV GT D, MOI 40, day 10 pi (Table 5)) was 0.023 µM, the IC50 (HBV DNA; read-out: HBV DNA IC50s, PHH, patient-derived HBV GT A-D) was 0.02 to 0.025 µM and the IC50 (cccDNA; HepG2.2.15-derived HBV GT D, MOI 40, read-out: cccDNA IC50 (μM) Median) was 25.9 µM. For the same compound, the IC50 (cccDNA; HepG2.2.15-derived HBV GT D, MOI 125, read-out: cccDNA IC50 (μM) Median) was 27.2 µM, the IC50 (cccDNA; patient-derived HBV GT D, MOI 125, read-out: cccDNA IC50 (μM) Median) was 7.05 µM and the “cccDNA IC50 (μM) Median” value (cccDNA; patient-derived HBV GT D, MOI 40) was “below LLOQ”. The IC50 (HBeAg; read-out: HBeAg IC50 (μM) Median, HepaRG, HepG2.2.15-derived HBV GT D, MOI 40) was 6.11 µM, the IC50 (HBeAg; read-out: HBeAg IC50 (μM) Median, HepaRG, HepG2.2.15-derived HBV GT D, MOI 125) was 6.55 µM and the IC50 (HBeAg; read-out: HBeAg IC50 (μM) Median, HepaRG, patient-derived HBV GT D, MOI 40) was 0.41 µM. The IC50 (HBeAg; read-out: HBeAg IC50 (μM) Median, HepaRG, patient-derived HBV GT D, MOI 125) was 0.52 µM.
